This note sets out measurements from patent publication US20160214956A1, “NOVEL SOLUBLE GUANYLATE CYCLASE ACTIVATORS AND THEIR USE” (GLAXOSMITHKLINE INTELLECTUAL PROPERTY DEVELOPMENT LIMITED, priority 2013, published 2016).

In this test the target is T1, soluble guanylate cyclase (sGC) (Rattus norvegicus, UniProt P20595).
T1 construct: endogenous in cells; host or cells: primary rat aortic smooth muscle cells
T1 sequence (P20595 1-619): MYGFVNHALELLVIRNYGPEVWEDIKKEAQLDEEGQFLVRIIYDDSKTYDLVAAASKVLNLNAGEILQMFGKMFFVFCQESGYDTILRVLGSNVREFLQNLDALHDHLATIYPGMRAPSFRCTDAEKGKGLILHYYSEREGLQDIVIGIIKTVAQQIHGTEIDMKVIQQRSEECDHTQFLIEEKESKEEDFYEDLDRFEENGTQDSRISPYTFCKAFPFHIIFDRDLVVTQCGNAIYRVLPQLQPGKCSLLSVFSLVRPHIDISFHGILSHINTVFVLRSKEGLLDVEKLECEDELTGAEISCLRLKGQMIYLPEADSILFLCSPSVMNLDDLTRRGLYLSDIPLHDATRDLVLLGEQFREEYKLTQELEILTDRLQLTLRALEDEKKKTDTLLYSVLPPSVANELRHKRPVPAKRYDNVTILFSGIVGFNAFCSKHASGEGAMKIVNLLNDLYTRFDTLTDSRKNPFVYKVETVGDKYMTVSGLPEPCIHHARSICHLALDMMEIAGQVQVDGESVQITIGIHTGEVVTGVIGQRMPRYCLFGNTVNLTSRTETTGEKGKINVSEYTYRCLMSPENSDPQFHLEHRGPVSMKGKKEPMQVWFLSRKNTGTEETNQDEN
T1 sequence (P19686 1-690 partner): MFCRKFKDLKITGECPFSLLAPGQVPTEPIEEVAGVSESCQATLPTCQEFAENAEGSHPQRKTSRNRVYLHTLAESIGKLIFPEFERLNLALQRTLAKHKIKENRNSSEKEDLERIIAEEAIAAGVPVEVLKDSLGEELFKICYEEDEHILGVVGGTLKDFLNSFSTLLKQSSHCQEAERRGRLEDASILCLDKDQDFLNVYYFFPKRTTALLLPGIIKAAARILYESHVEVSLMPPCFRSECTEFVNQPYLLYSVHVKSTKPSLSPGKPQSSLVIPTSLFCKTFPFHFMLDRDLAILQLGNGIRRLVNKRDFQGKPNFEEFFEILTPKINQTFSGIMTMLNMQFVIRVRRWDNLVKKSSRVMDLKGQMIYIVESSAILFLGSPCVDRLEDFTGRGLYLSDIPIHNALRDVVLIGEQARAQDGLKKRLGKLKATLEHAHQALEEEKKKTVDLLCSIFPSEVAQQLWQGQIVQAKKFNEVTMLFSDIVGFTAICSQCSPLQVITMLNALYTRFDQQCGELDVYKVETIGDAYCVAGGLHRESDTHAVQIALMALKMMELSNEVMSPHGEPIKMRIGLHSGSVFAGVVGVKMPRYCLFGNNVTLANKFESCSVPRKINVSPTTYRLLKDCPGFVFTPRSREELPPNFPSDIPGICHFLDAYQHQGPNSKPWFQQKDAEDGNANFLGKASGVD
Briefly: Cellular assay, VASP phosphorylation in rat aortic smooth muscle cells with ODQ. The format is cell-based. The note with it: phospho-VASP signal, primary rat aortic smooth muscle cells, 10 μM ODQ, 30 min incubation; 50% vs. Bmax; read-out: Cell assay pEC50 (converted). The procedure: The activity of soluble guanylate cyclase (sGC) was tested in an assay based on measuring phosphorylation of the protein kinase G (PKG) substrate vasodilator-stimulated phosphoprotein (VASP) in rat aortic smooth muscle cells. […] Dimethylsulfoxide (DMSO) vehicle and varying concentrations of the compound to be tested were then added. Following a 30 min incubation at 37° C., media was aspirated and the cells were rinsed with phosphate-buffered saline (PBS) and fixed with 4% formaldehyde in PBS by incubating at room temperature for 20 min. Cells were then washed with PBS and permeabilized for 10 min using 0.1% triton X-100 in PBS. Following PBS rinsing, the cells were blocked for 90 min at room temperature with blocking buffer. The buffer was aspirated and the cells were treated overnight at 4° C. with primary antibody (pSer239-VASP, rabbit polyclonal Ab) diluted 1:500 in blocking buffer. Following three washes with 0.05% Tween 20, the cells were treated for 1 h at room temperature with a fluorescent labeled secondary antibody (IRDye® 800CW Donkey Anti-Rabbit IgG) diluted 1:2500 in blocking buffer with 0.05% Tween 20. Following two washes with PBS, infrared fluorescence was measured using an Odyssey Infrared Imaging System. The activity of a test compound was determined as the pEC50 value which is the concentration able to increase by 50% (vs. Bmax) the phospho-VASP fluorescent signal. Front. Pharmacol., 5 Jul. 2012|doi: 10.3389/fphar.2012.00128, Volume 3 July, 2012, Article number 128.

For `Cc1cc(OCCCC(F)(F)F)ccc1CCc1ccccc1-c1cccc(-n2ncc(C(=O)O)c2C(F)(F)F)n1` [Example 1, 1-(6-(2-(2-methyl-4-(4,4,4-trifluorobutoxy)phenethyl)phenyl)pyridin-2-yl)-5-(trifluoromethyl)-1H-pyrazole-4-carboxylic acid], the EC50 is 0.0145 µM.
With `Cc1cc(OCCCn2ccc(C(F)(F)F)n2)ccc1CCc1ccccc1-c1cccc(-n2ncc(C(=O)O)c2C(F)(F)F)n1` [Example 3, 1-(6-(2-(2-methyl-4-(3-(3-(trifluoromethyl)-1H-pyrazol-1-yl)propoxy)phenethyl)phenyl)pyridin-2-yl)-5-(trifluoromethyl)-1H-pyrazole-4-carboxylic acid], the EC50 was 0.00589 µM.
Under `O=C(O)c1cnn(-c2cccc(-c3ccccc3OCc3ccc(OCCCC(F)(F)F)cc3F)n2)c1C(F)(F)F` [Example 5, 1-(6-(2-((2-fluoro-4-(4,4,4-trifluorobutoxy)benzyl)oxy)phenyl)pyridin-2-yl)-5-(trifluoromethyl)-1H-pyrazole-4-carboxylic acid] stands 0.0603 µM.
The figure for `COCCCOc1ccc(COc2ccccc2-c2cccc(-n3ncc(C(=O)O)c3C(F)(F)F)n2)c(F)c1` [Example 6, 1-(6-(2-((2-fluoro-4-(3-methoxypropoxy)benzyl)oxy)phenyl)pyridin-2-yl)-5-(trifluoromethyl)-1H-pyrazole-4-carboxylic acid] is 0.151 µM; for `Cc1cc(OCCCC#N)ccc1COc1ccccc1-c1cccc(-n2ncc(C(=O)O)c2C(F)(F)F)n1` [Example 9, 1-(6-(2-((4-(3-cyanopropoxy)-2-methylbenzyl)oxy)phenyl)pyridin-2-yl)-5-(trifluoromethyl)-1H-pyrazole-4-carboxylic acid] it is > 0.631 µM.
`COCCCOc1ccc(COc2ccccc2-c2cccc(-n3ncc(C(=O)O)c3C(F)(F)F)n2)c(C)c1` [Example 10, 1-(6-(2-((4-(3-methoxypropoxy)-2-methylbenzyl)oxy)phenyl)pyridin-2-yl)-5-(trifluoromethyl)-1H-pyrazole-4-carboxylic acid]: the EC50 is 0.0912 µM.
With `Cc1cc(OCCCC(F)(F)F)ccc1COc1ccccc1-c1cccc(-n2ncc(C(=O)O)c2C(F)(F)F)n1` [Example 11, 1-(6-(2-((2-methyl-4-(4,4,4-trifluorobutoxy)benzyl)oxy)phenyl)pyridin-2-yl)-5-(trifluoromethyl)-1H-pyrazole-4-carboxylic acid], the EC50 is 0.102 µM.
